Measured values taken from publication PMC7959488, “Identify potent SARS-CoV-2 main protease inhibitors via accelerated free energy perturbation-based virtual screening of existing drugs” (Proceedings of the National Academy of Sciences of the …, 2020).
Counter-ions that a name gives are not always drawn. Like-named read-outs stand apart in the source and are kept apart here.

What was measured:
[1] = system: HIV-1 protease; settings: experimental binding free energy; ligand named by PDB code of its complex; cited from earlier work
[2] = system: human factor Xa; settings: experimental binding free energy; ligand named by PDB code of its complex; cited from earlier work
[3] = system: BRD4; set-up: method as in Aldeghi et al. (18); settings: experimental binding free energy; ligand named by PDB code of its complex; ref Aldeghi et al. (18); cited from earlier work
[4] = molecular target: T1, SARS-CoV-2 M^pro (Severe acute respiratory syndrome coronavirus 2, UniProt P0DTD1); settings: for UEMM-GBSA: unsigned error |ΔGMM-GBSA − ΔGexp|; for UEMM-PBSA: unsigned error |ΔGMM-PBSA − ΔGexp|
[5] = molecular target: T1, SARS-CoV-2 M^pro
[6] = molecular target: T1, SARS-CoV-2 M^pro; settings: ref [6], [36]; read-out: IC50 (µM), values in the brackets obtained from other published works (converted); cited from earlier work
[7] = molecular target: T1, SARS-CoV-2 M^pro; assay: biochemical
[8] = system: vesicular stomatitis virus (VSV); format: cell-based
[9] = system: SARS-CoV-2; settings: cited from earlier work; for activity in vitro against SARS-CoV-2: molecular targets not reported
[10] = system: human ether-a-go-go−related gene (hERG) encoded potassium channel Kv11.1; settings: cited from earlier work
[11] = system: SARS-CoV; settings: at 1.0 μM; cited from earlier work
[12] = system: norovirus; settings: cited from earlier work
[13] = system: microsomal prostaglandin E2 synthase 1 (mPGES-1); settings: cited from earlier work
[14] = calculated from corresponding Ki values
[15] = converted from IC50 based on the assumption of the competitive inhibition without covalent binding, read-out: Ki
[16] = substrate concentration 20 µM, 500 nM enzyme, ∼50 values estimated from single-concentration assay, read-out: IC50

SMILES: O=S1(=O)N(Cc2ccccc2)[C@H](COc2ccccc2)[C@H](O)[C@@H](O)[C@@H](COc2ccccc2)N1Cc1ccccc1 [1AJV]
- ∆Gexp [1]: -10.5 kcal/mol

SMILES: O=C(NCc1ccccc1)[C@H](OCc1ccccc1)[C@H](O)[C@@H](O)[C@@H](OCc1ccccc1)C(=O)N[C@H]1c2ccccc2C[C@H]1O [1D4H]
- ∆Gexp [1]: -13.6 kcal/mol

SMILES: O=C(N[C@H]1c2ccccc2C[C@H]1O)[C@@H](C[C@@H](O)[C@@H](OCc1ccccc1)C(=O)N[C@H]1c2ccccc2C[C@H]1O)OCc1ccccc1 [1D4I]
- ∆Gexp [1]: -12.1 kcal/mol

SMILES: O=C(N[C@H]1c2ccccc2C[C@H]1O)[C@H](OCc1ccccc1)[C@H](O)[C@@H](O)[C@@H](OCc1ccccc1)C(=O)N[C@H]1c2ccccc2C[C@H]1O [1EBY]
- ∆Gexp [1]: -13.2 kcal/mol

SMILES: CNC(=O)[C@@H](NC(=O)[C@H](OCc1ccccc1)[C@H](O)[C@@H](O)[C@@H](OCc1ccccc1)C(=O)N[C@H]1c2ccccc2C[C@H]1O)C(C)C [1EBZ]
- ∆Gexp [1]: -12.8 kcal/mol

SMILES: CN1CCN=C1c1cccc(Oc2nc(Oc3cc(C(=N)N)ccc3O)c(F)c(N(C)CC(=O)O)c2F)c1 [1FJS]
- ∆Gexp [2]: -13.6 kcal/mol

SMILES: COc1cc(Cl)cc(C(=O)Nc2ccc(Cl)cn2)c1NC(=O)c1scc(CN(C)C2=NCCO2)c1Cl [1MQ6]
- ∆Gexp [2]: -15.2 kcal/mol

SMILES: CC(C(=O)N1CCOCC1)N1CCC(NS(=O)(=O)c2cc3ccc(Cl)cc3s2)C1=O (centres unmarked) [2J34]
- ∆Gexp [2]: -10.7 kcal/mol

SMILES: COc1ccc(-n2nc(C(N)=O)c3c2C(=O)N(c2ccc(N4CCCCC4=O)cc2)CC3)cc1 [2P16]
- ∆Gexp [2]: -13.8 kcal/mol

SMILES: CC(=O)N[C@@H](C)C(=O)N[C@@H](Cc1ccccc1)[C@H](O)CN(Cc1cccs1)S(=O)(=O)c1cc(F)c(F)cc1F [2QHY]
- ∆Gexp [1]: -10.2 kcal/mol

SMILES: O=C(Cn1cnc(NC(=O)c2ccc(Cl)s2)n1)Nc1ccc(-n2ccccc2=O)cc1F [2VVV]
- ∆Gexp [2]: -11.2 kcal/mol

SMILES: C=C(C)CNC(=O)C1N(C(=O)C(O)C(Cc2ccccc2)NC(=O)COc2c(C)cc(N)cc2C)CSC1(C)C (centres unmarked) [3A2O]
- ∆Gexp [1]: -12.4 kcal/mol

SMILES: Cc1sc2c(c1C)C(c1ccc(Cl)cc1)=N[C@@H](CC(=O)OC(C)(C)C)c1nnc(C)n1-2 [3MXF]
- ∆Gexp [3]: -9.6 kcal/mol

SMILES: CCOc1cc(-c2c(C)noc2C)cc(C(C)O)c1 (centres unmarked) [3SVG]
- ∆Gexp [3]: -7.3 kcal/mol

SMILES: Cc1nnc2n1-c1ccc(Cl)cc1C(c1ccccc1)=NC2 [3U5J]
- ∆Gexp [3]: -7.4 kcal/mol

SMILES: Cc1nnc2n1-c1ccc(Cl)cc1C(c1ccccc1)=NN2C [3U5L]
- ∆Gexp [3]: -8.2 kcal/mol

SMILES: CN1Cc2cc(Br)ccc2NC1=O [4HBV]
- ∆Gexp [3]: -6.3 kcal/mol

SMILES: Cc1noc(C)c1-c1cc(O)cc(C(O)c2ccccc2)c1 (centres unmarked) [4J0R]
- ∆Gexp [3]: -8.8 kcal/mol

SMILES: COc1cc(OC)c2c(=O)[nH]c(-c3cc(C)c(O)c(C)c3)nc2c1 [4MR3]
- ∆Gexp [3]: -9.0 kcal/mol

SMILES: COc1cc(OC)c2c(=O)[nH]c(-c3cc(C)c(OCCO)c(C)c3)nc2c1 [4MR4]
- ∆Gexp [3]: -7.8 kcal/mol

SMILES: CC(C)CN(CC(O)C(Cc1ccccc1)NC(=O)OC1COC2OCC(F)(F)C12)S(=O)(=O)c1ccc(N)cc1 (centres unmarked) [4U8W]
- ∆Gexp [1]: -15.3 kcal/mol

SMILES: Cc1coc(CN(C)C(=O)c2cccc(C(=O)N[C@@H](Cc3ccccc3)[C@H](O)CN(CC(C)C)S(=O)(=O)c3ccc(CO)cc3)c2)n1 [5UPZ]
- ∆Gexp [1]: -12.5 kcal/mol

SMILES: COC(=O)N[C@H](C(=O)N[C@@H](Cc1ccccc1)[C@@H](O)CN(Cc1ccc(-c2ccccn2)cc1)NC(=O)[C@@H](NC(=O)OC)C(C)(C)C)C(C)(C)C [Atazanavir, atazanavir]
- UEMM-GBSA [4]: 30.6 kcal/mol
- UEMM-PBSA [4]: 24.4 kcal/mol
- UEFEP-ABFE [5]: 0.6 kcal/mol
- IC50 [6]: 10 µM
- ΔGexp [7, 14]: -8.6 kcal/mol
- Ki [7, 15]: 490 ± 20 nM
- IC50 [7, 16]: 7.5 ± 0.3 µM

SMILES: CCOc1nc2cccc(C(=O)OC(C)OC(=O)OC3CCCCC3)c2n1Cc1ccc(-c2ccccc2-c2nnn[nH]2)cc1 (centres unmarked) [Candesartan cilexetil, candesartan cilexetil]
- UEMM-GBSA [4]: 29.1 kcal/mol
- UEMM-PBSA [4]: 26.9 kcal/mol
- UEFEP-ABFE [5]: 0.6 kcal/mol
- ΔGexp [7, 14]: -9.2 kcal/mol
- Ki [7, 15]: 180 ± 20 nM
- IC50 [7, 16]: 2.8 ± 0.3 µM

SMILES: CCOc1nc2cccc(C(=O)O)c2n1Cc1ccc(-c2ccccc2-c2nnn[nH]2)cc1 [Candesartan, candesartan]
- Ki [7]: 620 nM

SMILES: CCN(CC)CCCC(C)Nc1ccnc2cc(Cl)ccc12 (centres unmarked) [Chloroquine, chloroquine]
- inhibition of VSV [8]: no significant inhibition
- UEMM-GBSA [4]: 24.7 kcal/mol
- UEMM-PBSA [4]: 16.1 kcal/mol
- activity in vitro against SARS-CoV-2 [9]: active in vitro
- IC50 [10]: 2.5 µM
- UEFEP-ABFE [5]: 1.5 kcal/mol
- SARS-CoV replication reduced to [11]: 53%
- sensitivity of norovirus to treatment [12]: hypersensitive

SMILES: CN/C(=N/CCSCc1nc[nH]c1C)NC#N [Cimetidine]
- UEMM-GBSA [4]: 20.3 kcal/mol
- UEMM-PBSA [4]: 18.7 kcal/mol
- UEFEP-ABFE [5]: 1.4 kcal/mol
- IC50 [7]: ~50 µM
- Ki [7]: ~3270 nM
- ΔGexp [7]: -7.5 kcal/mol

SMILES: OCCN(CCO)c1nc(N2CCCCC2)c2nc(N(CCO)CCO)nc(N3CCCCC3)c2n1 [DIP, dipyridamole]
- inhibition of mPGES-1 [13]: weak inhibitor
- EC50 ([9]; raw antiviral activity data reported separately, read-out: EC50, suppression of SARS-CoV-2 replication): 100 nM

SMILES: CCN(CC)C(=S)SSC(=S)N(CC)CC [Disulfiram, disulfiram]
- UEFEP-ABFE [5]: 2.2 kcal/mol
- UEFEP-ABFE ([5]; listed as disulfiram): about 2.2 kcal/mol
- ΔGexp [7, 14]: -8.8 kcal/mol

SMILES: CCN(CCO)CCCC(C)Nc1ccnc2cc(Cl)ccc12 (centres unmarked) [Hydroxychloroquine, hydroxychloroquine]
- inhibition of VSV [8]: no significant inhibition
- activity in vitro against SARS-CoV-2 [9]: active in vitro
- IC50 ([10]; read-out: IC50, hERG Kv11.1 block): 10.7 µM
- UEFEP-ABFE [5]: 1.1 kcal/mol

SMILES: CC(C)(C)NC(=O)[C@@H]1CN(Cc2cccnc2)CCN1C[C@@H](O)C[C@@H](Cc1ccccc1)C(=O)N[C@H]1c2ccccc2C[C@H]1O [Indinavir]
- activity in vitro against SARS-CoV-2 [9]: active in vitro

SMILES: CC(C)Nc1nc2cc(Cl)c(Cl)cc2n1[C@H]1O[C@@H](CO)[C@H](O)[C@@H]1O [Maribavir]
- UEMM-GBSA [4]: 25.7 kcal/mol
- UEMM-PBSA [4]: 19.5 kcal/mol
- UEFEP-ABFE ([5]; unsigned error |ΔGFEP-ABFE − ΔGexp|): 2.2 kcal/mol
- UEFEP-ABFE ([5]; unsigned error |ΔGFEP-ABFE − ΔGexp|, listed as maribavir): about 2.2 kcal/mol

SMILES: COc1ccc2[nH]c([S+]([O-])Cc3ncc(C)c(OC)c3C)nc2c1 (centres unmarked) [Omeprazole]
- UEMM-GBSA [4]: 16.4 kcal/mol
- UEMM-PBSA [4]: 14.3 kcal/mol
- UEFEP-ABFE [5]: 1.6 kcal/mol
- IC50 [7]: 21 ± 1 µM
- Ki [7]: 1370 ± 60 nM
- ΔGexp [7, 14]: -8.0 kcal/mol

SMILES: CN(C)[C@@H]1C(O)=C(C(N)=O)C(=O)[C@@]2(O)C(O)=C3C(=O)c4c(O)cccc4[C@@](C)(O)[C@H]3[C@H](O)[C@@H]12 [Oxytetracycline]
- UEMM-GBSA [4]: 6.4 kcal/mol
- UEMM-PBSA [4]: 1.8 kcal/mol
- UEFEP-ABFE [5]: 0.6 kcal/mol
- ΔGexp [7, 14]: -8.2 kcal/mol
- Ki [7, 15]: 990 ± 60 nM
- IC50 [7, 16]: 15.2 ± 0.9 µM

SMILES: CC(=O)OCC(=O)NCCCOc1cccc(CN2CCCCC2)c1 [Roxatidine acetate hydrochloride]
- UEMM-GBSA [4]: 22.5 kcal/mol
- UEMM-PBSA [4]: 21.2 kcal/mol
- UEFEP-ABFE [5]: 0.8 kcal/mol
- ΔGexp [7, 14]: -8.0 kcal/mol
- Ki [7, 15]: 1330 ± 20 nM
- IC50 [7, 16]: 20.3 ± 0.4 µM

SMILES: CC(=O)NS(=O)(=O)c1ccc(N)cc1 [Sulfacetamide]
- UEMM-GBSA [4]: 6.4 kcal/mol
- UEMM-PBSA [4]: 7.3 kcal/mol
- UEFEP-ABFE [5]: 0.5 kcal/mol
- IC50 [7]: ~50 µM
- Ki [7]: ~3270 nM
- ΔGexp [7, 14]: -7.5 kcal/mol

SMILES: CC(C)[C@H](N)C(=O)OCCOCn1cnc2c(=O)[nH]c(N)nc21 [Valacyclovir hydrochloride]
- UEMM-GBSA [4]: 10.2 kcal/mol
- UEMM-PBSA [4]: 12.7 kcal/mol
- UEFEP-ABFE [5]: 1.9 kcal/mol
- ΔGexp [7, 14]: -8.1 kcal/mol
- Ki [7, 15]: 1090 ± 60 nM
- IC50 [7, 16]: 16.7 ± 0.9 µM

SMILES: CC(C)[C@H](N)C(=O)OCC(CO)OCn1cnc2c(=O)nc(N)[nH]c21 (some centres unmarked) [Valganciclovir Hydrochloride]
- Ki [7, 15]: 1090 ± 60 nM
